Among the data in ChEMBL document CHEMBL2073996, “Increased bioavailability of the food-derived carcinogen 2-amino-1-methyl-6-phenylimidazo[4,5-b]pyridine in MRP2-deficient rats” (Mol Pharmacol, 2001) are Activity values, retold here.

The series deals with ATP-binding cassette sub-family C member 2 (Homo sapiens, UniProt Q92887). The series can be described thus: TP_TRANSPORTER: transepithelial transport (basal to apical) in MRP2-expressing MDCKII cells. The settings on record: dog, mdck-ii. Type of series: functional, cell-based.
ATP-binding cassette sub-family C member 2, sequence (Q92887 whole entry): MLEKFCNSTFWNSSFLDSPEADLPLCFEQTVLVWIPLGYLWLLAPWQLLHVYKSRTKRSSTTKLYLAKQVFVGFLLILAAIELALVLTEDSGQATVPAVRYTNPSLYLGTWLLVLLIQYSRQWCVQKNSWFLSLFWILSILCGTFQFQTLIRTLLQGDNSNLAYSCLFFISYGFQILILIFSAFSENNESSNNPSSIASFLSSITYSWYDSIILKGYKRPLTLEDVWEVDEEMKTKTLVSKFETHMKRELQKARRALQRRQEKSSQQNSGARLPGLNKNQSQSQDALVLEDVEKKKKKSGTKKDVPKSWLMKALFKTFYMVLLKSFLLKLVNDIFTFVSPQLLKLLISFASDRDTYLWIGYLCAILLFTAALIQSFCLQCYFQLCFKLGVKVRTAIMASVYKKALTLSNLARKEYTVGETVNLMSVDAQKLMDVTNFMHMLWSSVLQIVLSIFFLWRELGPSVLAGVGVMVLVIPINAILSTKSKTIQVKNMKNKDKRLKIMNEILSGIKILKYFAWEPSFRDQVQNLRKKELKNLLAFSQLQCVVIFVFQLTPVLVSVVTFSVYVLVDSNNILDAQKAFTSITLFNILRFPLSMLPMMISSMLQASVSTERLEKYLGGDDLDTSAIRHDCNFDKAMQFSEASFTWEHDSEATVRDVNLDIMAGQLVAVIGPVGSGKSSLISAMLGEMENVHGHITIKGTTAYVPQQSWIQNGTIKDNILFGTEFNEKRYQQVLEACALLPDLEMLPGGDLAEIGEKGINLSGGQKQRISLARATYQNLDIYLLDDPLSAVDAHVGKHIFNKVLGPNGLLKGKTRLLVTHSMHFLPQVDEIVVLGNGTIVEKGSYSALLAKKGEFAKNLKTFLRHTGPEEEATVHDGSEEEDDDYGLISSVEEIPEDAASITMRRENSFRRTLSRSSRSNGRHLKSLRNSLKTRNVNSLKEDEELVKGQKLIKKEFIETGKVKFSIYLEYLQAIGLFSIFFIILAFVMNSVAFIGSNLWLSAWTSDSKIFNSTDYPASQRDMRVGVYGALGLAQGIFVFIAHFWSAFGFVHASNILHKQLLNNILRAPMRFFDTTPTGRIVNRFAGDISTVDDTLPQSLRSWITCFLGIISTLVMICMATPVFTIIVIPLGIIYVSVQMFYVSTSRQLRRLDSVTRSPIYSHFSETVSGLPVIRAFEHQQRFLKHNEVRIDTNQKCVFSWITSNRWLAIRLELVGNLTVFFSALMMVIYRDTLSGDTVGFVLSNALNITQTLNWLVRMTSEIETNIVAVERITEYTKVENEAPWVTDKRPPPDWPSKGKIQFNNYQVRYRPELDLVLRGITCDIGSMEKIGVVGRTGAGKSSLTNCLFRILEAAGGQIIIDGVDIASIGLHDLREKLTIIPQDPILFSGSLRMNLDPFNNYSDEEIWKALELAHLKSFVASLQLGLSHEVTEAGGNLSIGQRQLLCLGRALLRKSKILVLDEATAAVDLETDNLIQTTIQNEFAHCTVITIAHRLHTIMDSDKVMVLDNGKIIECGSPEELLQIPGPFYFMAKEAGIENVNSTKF

Take `Cn1c(N)nc2ncc(-c3ccccc3)cc21` [2-AMINO-1-METHYL-6- PHENYLIMIDAZO[4,5- B]PYRIDINE]: the Activity entry is “substrate [+]”.
